Experimental data taken from US11091428B2 (HAPLOGEN GMBH, priority 2016, dated 2021).

Assays:
PLA2G16 = target: T1, PLA2G16 (Homo sapiens, UniProt P53816); assay: Enzyme activity assay for PLA2G16 (Red/Green BODIPY PC-A2 fluorescence); format: biochemical; conditions: His-tagged PLA2G16, 4 min pre-incubation, 2 nM to 50 μM; read-out: IC50 values of the compounds determined in the enzyme activity assay for PLA2G16
T1 construct: Hexa-His (N); made in house; host or cells: E. coli BL21(DE3)
T1 sequence (P53816 1-162): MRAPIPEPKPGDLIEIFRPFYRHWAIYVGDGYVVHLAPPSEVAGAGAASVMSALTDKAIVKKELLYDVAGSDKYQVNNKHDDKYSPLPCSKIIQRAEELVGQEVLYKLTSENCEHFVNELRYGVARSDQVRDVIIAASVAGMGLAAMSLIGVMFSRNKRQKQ
Outline: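 IC50 from non-linear fits of fluorescence rise (480/530 nm, 10 min) after adding Red/Green BODIPY PC-A2 mixed with DOPC/DOPG/cholesterol liposomes. Recombinant His-tagged human enzyme, bacterially expressed, was first exposed to inhibitor (2 nM–50 μM final) for 4 min in 50 mM Tris pH 8.5, 100 mM NaCl, 5 mM glutathione.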

[1] = test system: picornaviruses (CVB1, HRV-A2, HRV-A23, EV-68); assay: Anti-picornavirus cytopathic effect (CPE) reduction assay on HeLa H1 cells; format: cell-based; conditions: Enterovirus B, HeLa H1, 48 h, HeLa H1 cells, 48 h, category from averaging the EC50 values from four picornaviruses (CVB1, HRV-A2, HRV-A23, EV68); read-out: EC50 values of the compounds determined in the anti-picornavirus assay
Outline: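 Cytopathic-effect protection: EC50 from non-linear regression of cell viability (CellTiterBlue, 560/590 nm) 48 h post-infection, scaled between infected and mock-infected vehicle wells. Compound dilutions added to HeLa H1 cells 2 h before virus (MOI causing complete CPE within 2 days), in DMEM + 2% FBS; categories average the four viruses.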

SMILES	IC50 (PLA2G16) [nM]	EC50 [1] [nM]
Cn1nccc1CNC(=O)C(=O)[C@H]1CCC(=O)N1Cc1ccccc1 [FP 296, 2-[(2R)-1-Benzyl-5-oxopyrrolidin-2-yl]-N-[(1-methyl-1H-pyrazol-5-yl)methyl]-2-oxoacetamide]	< 1000	1000 to 10000
O=C(NC1CC2(COC2)C1)C(=O)[C@H]1CCC(=O)N1Cc1ccccc1 [FP 297, 2-[(2R)-1-Benzyl-5-oxopyrrolidin-2-yl]-N-{2-oxaspiro[3.3]heptan-6-yl}-2-oxoacetamide]	< 1000	1000 to 10000
O=C(NCc1ncccn1)C(=O)[C@H]1CCC(=O)N1Cc1ccccc1 [FP 298, 2-[(2R)-1-Benzyl-5-oxopyrrolidin-2-yl]-2-oxo-N-[(pyrimidin-2-yl)methyl]acetamide]	< 1000	1000 to 10000
O=C(N[C@@H]1CCCCNC1=O)C(=O)[C@H]1CCC(=O)N1Cc1ccccc1 [FP 300, 2-[(2R)-1-Benzyl-5-oxopyrrolidin-2-yl]-2-oxo-N-[(3R)-2-oxoazepan-3-yl]acetamide]	< 1000	1000 to 10000
CC(C)OCCCNC(=O)C(=O)[C@H]1CCC(=O)N1Cc1ccccc1 [FP 301, 2-[(2R)-1-Benzyl-5-oxopyrrolidin-2-yl]-2-oxo-N-[3-(propan-2-yloxy)propyl]acetamide]	< 1000	< 1000
CCOCCOCCNC(=O)C(=O)[C@H]1CCC(=O)N1Cc1ccccc1 [FP 302, 2-[(2R)-1-Benzyl-5-oxopyrrolidin-2-yl]-N-[2-(2-ethoxyethoxy)ethyl]-2-oxoacetamide]	< 1000	1000 to 10000
N#CC1CC(NC(=O)C(=O)[C@H]2CCC(=O)N2Cc2ccccc2)C1 (stereo partly drawn) [FP 303, 2-[(2R)-1-Benzyl-5-oxopyrrolidin-2-yl]-N-(3-cyanocyclobutyl)-2-oxoacetamide]	< 1000	1000 to 10000
CC(C)C(=O)NCCCCNC(=O)C(=O)[C@H]1CCC(=O)N1Cc1ccccc1 [FP 304, N-(4-{2-[(2R)-1-Benzyl-5-oxopyrrolidin-2-yl]-2-oxoacetamido}butyl)-2-methylpropan-amide]	< 1000	1000 to 10000
CC(C)NC(=O)[C@H]1C[C@@H](NC(=O)C(=O)[C@H]2CCC(=O)N2Cc2ccccc2)C1 [FP 305, (1 s,3s)-3-{2-[(2R)-1-Benzyl-5-oxopyrrolidin-2-yl]-2-oxoacetamido}-N-(propan-2-yl)cyclobutane-1-carboxamide]	< 1000	1000 to 10000
CC(C)NC(=O)[C@H]1C[C@H](NC(=O)C(=O)[C@H]2CCC(=O)N2Cc2ccccc2)C1 [FP 306, (1 r,3r)-3-{2-[(2R)-1-Benzyl-5-oxopyrrolidin-2-yl]-2-oxoacetamido}-N-(propan-2-yl)cyclobutane-1-carboxamide]	< 1000	1000 to 10000
O=C(NCCC1CC1)C(=O)C1CCC(=O)N1Cc1ccccc1 (stereo not drawn) [FP 307, 2-(1-Benzyl-5-oxopyrrolidin-2-yl)-N-(2-cyclopropylethyl)-2-oxoacetamide]	< 1000	< 1000
CC(C)NC(=O)C(=O)C1CCC(=O)N1Cc1ccccc1 (stereo not drawn) [FP 308, 2-(1-Benzyl-5-oxopyrrolidin-2-yl)-2-oxo-N-(propan-2-yl)acetamide]	< 1000	< 1000
O=C(NCC1CCCCC1)C(=O)C1CCC(=O)N1Cc1nccs1 (stereo not drawn) [FP 311]	< 1000	< 1000
CC(C)(C)C(=O)N1CCC(NC(=O)C(=O)[C@H]2CCC(=O)N2Cc2ccccc2)CC1 [FP 314, 2-[(2R)-1-Benzyl-5-oxopyrrolidin-2-yl]-N-[1-(2,2-dimethylpropanoyl)piperidin-4-yl]-2-oxoacetamide]	< 1000	1000 to 10000
CC(C)C(=O)N1CCC(NC(=O)C(=O)[C@H]2CCC(=O)N2Cc2ccccc2)CC1 [FP 315, 2-[(2R)-1-Benzyl-5-oxopyrrolidin-2-yl]-N-[1-(2-methylpropanoyl)piperidin-4-yl]-2-oxoacetamide]	< 1000	1000 to 10000
CC(C)C(=O)N1CC(NC(=O)C(=O)[C@H]2CCC(=O)N2Cc2ccccc2)C1 [FP 316, 2-[(2R)-1-Benzyl-5-oxopyrrolidin-2-yl]-N-[1-(2-methylpropanoyl)azetidin-3-yl]-2-oxoacetamide]	< 1000	1000 to 10000
CC(C)CC(=O)N1CC(NC(=O)C(=O)[C@H]2CCC(=O)N2Cc2ccccc2)C1 [FP 317, 2-[(2R)-1-Benzyl-5-oxopyrrolidin-2-yl]-N-[1-(3-methylbutanoyl)azetidin-3-yl]-2-oxoacetamide]	< 1000	1000 to 10000

SMILES	IC50 (PLA2G16) [nM]	EC50 [1] [nM]
O=C(NC1CN(C(=O)C2CCC2)C1)C(=O)[C@H]1CCC(=O)N1Cc1ccccc1 [FP 318, 2-[(2R)-1-Benzyl-5-oxopyrrolidin-2-yl]-N-(1-cyclobutanecarbonylazetidin-3-yl)-2-oxoacetamide]	< 1000	1000 to 10000
O=C(NC1CN(C(=O)C2CCCC2)C1)C(=O)[C@H]1CCC(=O)N1Cc1ccccc1 [FP 319, 2-[(2R)-1-Benzyl-5-oxopyrrolidin-2-yl]-N-(1-cyclopentanecarbonylazetidin-3-yl)-2-oxoacetamide]	< 1000	1000 to 10000
O=C(NC1CCN(S(=O)(=O)C2CC2)CC1)C(=O)[C@H]1CCC(=O)N1Cc1ccccc1 [FP 320, 2-[(2R)-1-Benzyl-5-oxopyrrolidin-2-yl]-N-[1-(cyclopropanesulfonyl)piperidin-4-yl]-2-oxoacetamide]	< 1000	< 1000
O=C(NC1CCN(S(=O)(=O)C2CCCC2)CC1)C(=O)[C@H]1CCC(=O)N1Cc1ccccc1 [FP 321, 2-[(2R)-1-Benzyl-5-oxopyrrolidin-2-yl]-N-[1-(cyclopentanesulfonyl)piperidin-4-yl]-2-oxoacetamide]	< 1000	< 1000
O=C(NC1CN(S(=O)(=O)C2CCCC2)C1)C(=O)[C@H]1CCC(=O)N1Cc1ccccc1 [FP 322, 2-[(2R)-1-Benzyl-5-oxopyrrolidin-2-yl]-N-[1-(cyclopentanesulfonyl)azetidin-3-yl]-2-oxoacetamide]	< 1000	< 1000
CC(C)S(=O)(=O)N1CCC(NC(=O)C(=O)[C@H]2CCC(=O)N2Cc2ccccc2)CC1 [FP 323, 2-[(2R)-1-Benzyl-5-oxopyrrolidin-2-yl]-2-oxo-N-[1-(propane-2-sulfonyl)piperidin-4-yl]acetamide]	< 1000	< 1000
O=C(NC1CCN(C(=O)NC2CCC2)CC1)C(=O)[C@H]1CCC(=O)N1Cc1ccccc1 [FP 324, 4-{2-[(2R)-1-Benzyl-5-oxopyrrolidin-2-yl]-2-oxoacetamido}-N-cyclobutylpiperidine-1-carboxamide]	< 1000	< 1000
O=C(NC1CCN(C(=O)NC2CCCC2)CC1)C(=O)[C@H]1CCC(=O)N1Cc1ccccc1 [FP 325, 4-{2-[(2R)-1-Benzyl-5-oxopyrrolidin-2-yl]-2-oxoacetamido}-N-cyclopentylpiperidine-1-carboxamide]	< 1000	< 1000
CC(=O)NCCCCCCCNC(=O)C(=O)C1CCC(=O)N1Cc1ccccc1 (stereo not drawn) [FP 326, 2-(1-Benzyl-5-oxopyrrolidin-2-yl)-N-(7-acetamidoheptyl)-2-oxoacetamide]	< 1000	1000 to 10000
CC(=O)NCCOCCOCCNC(=O)C(=O)C1CCC(=O)N1Cc1ccc(Cl)cc1 (stereo not drawn) [FP 327, 2-{1-[(4-Chlorophenyl)methyl]-5-oxopyrrolidin-2-yl}-N-{2-[2-(2-acetamidoethoxy)-ethoxy]ethyl}-2-oxoacetamide]	1000 to 10000	> 10000
CC(=O)NCCCCCCNC(=O)C(=O)C1CCC(=O)N1Cc1ccccc1 (stereo not drawn) [FP 328, 2-(1-Benzyl-5-oxopyrrolidin-2-yl)-N-(6-acetamidohexyl)-2-oxoacetamide]	< 1000	1000 to 10000
CC(=O)NCCCCCCNC(=O)C(=O)C1CCC(=O)N1Cc1ccc(Cl)cc1 (stereo not drawn) [FP 330, 2-{1-[(4-Chlorophenyl)methyl]-5-oxopyrrolidin-2-yl}-N-(6-acetamidohexyl)-2-oxoacetamide]	< 1000	1000 to 10000
CC(C)C(=O)NCCNC(=O)C(=O)[C@H]1CCC(=O)N1Cc1ccccc1 [FP 331, N-(2-{2-[(2R)-1-Benzyl-5-oxopyrrolidin-2-yl]-2-oxoacetamido}ethyl)-2-methyl-propanamide]	< 1000	1000 to 10000
O=C(NCCNC(=O)C1CCC1)C(=O)[C@H]1CCC(=O)N1Cc1ccccc1 [FP 332, 2-[(2R)-1-Benzyl-5-oxopyrrolidin-2-yl]-N-[2-(cyclobutylformamido)ethyl]-2-oxoacetamide]	< 1000	1000 to 10000
CC(C)C(=O)N(C)CCNC(=O)C(=O)[C@H]1CCC(=O)N1Cc1ccccc1 [FP 333, N-(2-{2-[(2R)-1-Benzyl-5-oxopyrrolidin-2-yl]-2-oxoacetamido}ethyl)-N,2-dimethyl-propanamide]	< 1000	1000 to 10000
CCC1CC(=O)N(Cc2ccccc2)C1C(=O)C(=O)NC1CC1 (stereo not drawn) [FP 343, 2-(1-Benzyl-3-ethyl-5-oxopyrrolidin-2-yl)-N-cyclopropyl-2-oxoacetamide]	< 1000	< 1000
